Read-outs that look alike come from different tables or passages of the source.
Legend:
CDK12/CyclinK = CDK12/CyclinK (Homo sapiens (Human), UniProt Q9NYV4); test: CDK12/cyclinK enzyme activity; format: biochemical; conditions: in vitro
SK-Br3 cells = test: Breast cancer growth inhibitory activity (Cell-titer Glo, 72 h); format: cell-based; conditions: Homo sapiens, SK-BR-3
Experimental: (§1) Breast cancer cells in a culture solution (100 μL volume/well, 2,500 SK-Br3 cells/well, 1,000 HCC-1954 cells/well) were seeded into a tissue culture-treated 96-well plate and cultured in a cell incubator for 24 hours. […] Cell-titer Glo™ reagent (50 μL of a 5-fold diluted solution, Promega) was added to each well, and luminescence signals were measured using an Envision™ plate reader (PerkinElmer, USA). Titration curve fitting and IC50 values were generated using Prism 7.0 s/w (GraphPad, San Diego, USA).

HCC1954 cells = test: as above; format: cell-based; conditions: Homo sapiens
Experimental: as §1

[1] = tested on: Pol II CTD (Ser2) phosphorylation; test: Western blot, Pol II CTD Ser2 phosphorylation; format: cell-based; conditions: SK-Br3 cell line, 0.2 and 1 μM, 2 hours
cyclinK = test: Western blot, cyclinK degradation; format: cell-based; conditions: SK-Br3 cell line, 0.2 and 1 μM, 2 hours
[2] = 72 hours, read-out: SK-Br3 (GI50/μM)
[3] = 72 hours, read-out: HCC1954 (GI50/μM)

Sequence of CDK12/CyclinK (Q9NYV4 whole entry): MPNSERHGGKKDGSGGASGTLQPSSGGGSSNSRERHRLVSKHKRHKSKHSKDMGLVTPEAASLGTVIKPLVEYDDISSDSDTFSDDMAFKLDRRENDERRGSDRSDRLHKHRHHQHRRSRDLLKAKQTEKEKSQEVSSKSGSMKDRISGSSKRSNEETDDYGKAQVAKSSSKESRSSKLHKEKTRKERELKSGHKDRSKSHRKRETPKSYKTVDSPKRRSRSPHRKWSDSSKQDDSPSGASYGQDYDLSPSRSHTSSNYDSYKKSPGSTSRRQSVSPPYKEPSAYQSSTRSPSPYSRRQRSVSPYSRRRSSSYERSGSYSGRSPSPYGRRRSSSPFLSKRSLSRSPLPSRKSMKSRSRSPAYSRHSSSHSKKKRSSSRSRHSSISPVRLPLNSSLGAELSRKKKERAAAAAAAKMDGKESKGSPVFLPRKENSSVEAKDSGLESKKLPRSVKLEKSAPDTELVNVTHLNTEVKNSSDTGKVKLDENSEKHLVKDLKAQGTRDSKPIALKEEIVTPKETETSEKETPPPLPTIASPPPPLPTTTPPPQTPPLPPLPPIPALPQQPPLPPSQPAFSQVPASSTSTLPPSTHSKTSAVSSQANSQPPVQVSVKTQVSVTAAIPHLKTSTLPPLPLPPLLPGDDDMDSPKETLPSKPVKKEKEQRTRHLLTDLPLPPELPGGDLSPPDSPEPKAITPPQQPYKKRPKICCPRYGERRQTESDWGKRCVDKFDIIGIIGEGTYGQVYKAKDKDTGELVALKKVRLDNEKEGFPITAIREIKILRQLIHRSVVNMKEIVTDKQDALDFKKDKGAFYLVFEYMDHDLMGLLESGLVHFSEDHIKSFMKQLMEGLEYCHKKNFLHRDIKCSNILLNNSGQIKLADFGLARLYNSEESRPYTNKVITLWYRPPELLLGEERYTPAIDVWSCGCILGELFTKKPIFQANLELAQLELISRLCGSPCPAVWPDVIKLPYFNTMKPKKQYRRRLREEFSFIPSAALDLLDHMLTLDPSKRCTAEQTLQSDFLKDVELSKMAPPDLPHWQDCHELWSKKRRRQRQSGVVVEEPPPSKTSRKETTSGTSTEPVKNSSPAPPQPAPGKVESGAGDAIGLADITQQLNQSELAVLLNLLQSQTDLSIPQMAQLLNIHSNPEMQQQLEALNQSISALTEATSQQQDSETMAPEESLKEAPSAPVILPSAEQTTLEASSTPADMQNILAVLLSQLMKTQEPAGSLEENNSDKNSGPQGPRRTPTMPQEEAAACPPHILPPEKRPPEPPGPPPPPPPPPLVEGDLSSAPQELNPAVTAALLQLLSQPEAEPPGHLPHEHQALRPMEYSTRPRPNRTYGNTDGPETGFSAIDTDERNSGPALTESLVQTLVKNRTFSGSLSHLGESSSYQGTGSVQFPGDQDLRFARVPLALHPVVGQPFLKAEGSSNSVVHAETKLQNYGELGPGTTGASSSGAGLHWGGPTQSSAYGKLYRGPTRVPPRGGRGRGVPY
Sequence of CDK12/CyclinK (O75909 whole entry partner): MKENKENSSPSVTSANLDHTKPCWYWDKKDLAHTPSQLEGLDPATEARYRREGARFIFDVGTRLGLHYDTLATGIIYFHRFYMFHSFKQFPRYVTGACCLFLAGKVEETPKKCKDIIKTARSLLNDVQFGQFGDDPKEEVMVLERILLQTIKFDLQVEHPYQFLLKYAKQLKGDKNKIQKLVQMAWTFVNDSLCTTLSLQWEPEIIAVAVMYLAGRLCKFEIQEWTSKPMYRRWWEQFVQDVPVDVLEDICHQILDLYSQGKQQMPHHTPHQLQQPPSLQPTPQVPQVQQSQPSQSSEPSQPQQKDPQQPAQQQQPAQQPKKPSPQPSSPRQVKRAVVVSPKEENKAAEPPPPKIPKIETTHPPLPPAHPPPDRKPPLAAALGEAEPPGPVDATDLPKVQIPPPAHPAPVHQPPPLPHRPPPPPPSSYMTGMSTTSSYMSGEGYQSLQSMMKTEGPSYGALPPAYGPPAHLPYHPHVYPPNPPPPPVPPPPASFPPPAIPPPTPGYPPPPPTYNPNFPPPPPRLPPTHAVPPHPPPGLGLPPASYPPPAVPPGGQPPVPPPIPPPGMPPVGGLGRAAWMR

SMILES	IC50 (CDK12/CyclinK) [µM]	GI50 (SK-Br3 cells; [2]) [µM]	GI50 (HCC1954 cells; [3]) [µM]	GI50 (SK-Br3 cells; read-out: SK-Br3 GI50) [µM]	GI50 (HCC1954 cells; read-out: HCC1954 GI50) [µM]	Pol II CTD (Ser2) phosphorylation [1]	cyclinK degradation (cyclinK)
CC(C)n1cnc2c(NCc3ccc(-c4cccnc4)nc3)nc(-c3ccc(C(N)=O)cc3)nc21 [Example 10, 4-(6-(([2,3′-bipyridin]-5-ylmethyl)amino)-9-isopropyl-9H-purin-2-yl)benzamide]	0.484	3.7	3.14				
Cc1ccc(-c2nc(NCc3ccc(-c4cccnc4)nc3)c3ncn(C(C)C)c3n2)cn1 [Example 17, N-([2,3′-bipyridin]-5-ylmethyl)-9-isopropyl-2-(6-methylpyridin-3-yl)-9H-purin-6-amine]	0.09	1.25	0.937				
CC(C)n1cnc2c(NCc3ccc(-c4cccnc4)nc3)nc(-n3cc(CCO)nn3)nc21 [Example 42, 2-(1-(6-(([2,3′-bipyridin]-5-ylmethyl)amino)-9-isopropyl-9H-purin-2-yl)-1H-1,2,3-triazol-4-yl)ethan-1-ol]	0.539	8.29	6.5				
CN(C)C/C=C/C(=O)Nc1ccc(C(=O)N2CCC[C@@H](Nc3ncc(Cl)c(-c4c[nH]c5ccccc45)n3)C2)cc1 [THZ531, reference compound]	0.05		0.214	0.03	0.214		
c1cncc(-c2ccc(CNc3nc(-c4cccnc4)nc4c3ncn4C3CCOCC3)cn2)c1 [Example 48, N-([2,3′-bipyridin]-5-ylmethyl)-2-(pyridin-3-yl)-9-(tetrahydro-2H-pyran-4-yl)-9H-purin-6-amine]	> 10		44.2				
CC(C)n1cnc2c(NCc3ccc(-c4cccnc4)nc3)nc(-c3cnc4ccccc4c3)nc21 [Example 16, N-([2,3′-bipyridin]-5-ylmethyl)-9-isopropyl-2-(quinolin-3-yl)-9H-purin-6-amine]	0.486	3.71	4.23				
CC(C)n1cnc2c(NCc3ccc(-c4cccnc4)nc3)nc(-c3ccc(N)nc3)nc21 [Example 18, N-([2,3′-bipyridin]-5-ylmethyl)-2-(6-aminopyridin-3-yl)-9-isopropyl-9H-purin-6-amine]	0.065	0.375	0.279				
Cc1cc(N)n(-c2nc(NCc3ccc(-c4cccnc4)nc3)c3ncn(C(C)C)c3n2)n1 [Example 40, N-([2,3′-bipyridin]-5-ylmethyl)-2-(5-amino-3-methyl-1H-pyrazol-1-yl)-9-isopropyl-9H-purin-6-amine]	2.35	5.18	3.45				
CC(C)n1cnc2c(NCc3ccc(-c4cccnc4)nc3)nc(-c3ccnc(N)c3)nc21 [Example 19, N-([2,3′-bipyridin]-5-ylmethyl)-2-(2-aminopyridin-4-yl)-9-isopropyl-9H-purin-6-amine]	0.094		0.362				
CC(C)n1cnc2c(NCc3ccc(-c4ccccn4)cn3)nc(-c3cccnc3)nc21 [Example 1, N-([2,3′-bipyridin]-6′-ylmethyl)-9-isopropyl-2-(pyridin-3-yl)-9H-purin-6-amine]	0.433		0.105			inhibited Pol II CTD (Ser2) phosphorylation in a dose-dependent manner	induced the degradation of cyclinK
CC(C)n1cnc2c(NCc3ccc(-c4cccnc4)nc3)nc(-c3ccc4[nH]ncc4c3)nc21 [Example 14, N-([2,3′-bipyridin]-5-ylmethyl)-2-(1H-indazol-5-yl)-9-isopropyl-9H-purin-6-amine]	0.104	2.6	1.88				
CC(C)n1cnc2c(NCc3ccc(-c4cccnc4)nc3)nc(-c3ccccc3NCCO)nc21 [Example 31, 2-((2-(6-(([2,3′-bipyridin]-5-ylmethyl)amino)-9-isopropyl-9H-purin-2-yl)phenyl)amino)ethan-1-ol]	0.799	2.31	1.56				
CC(C)n1cnc2c(NCc3ccc(-c4cccnc4)nc3)nc(-c3ccccc3)nc21 [Example 8, N-([2,3′-bipyridin]-5-ylmethyl)-9-isopropyl-2-phenyl-9H-purin-6-amine]	0.623	1.68	1.12				
CC(C)n1cnc2c(NCc3ccc(-c4cccnc4)nc3)nc(-n3cc(CO)nn3)nc21 [Example 41, (1-(6-(([2,3′-bipyridin]-5-ylmethyl)amino)-9-isopropyl-9H-purin-2-yl)-1H-1,2,3-triazol-4-yl)methanol]	2.05	13.3	10				
CC(C)n1cnc2c(NCc3ccc(-c4cccnc4)nc3)nc(-c3cccc(C(N)=O)c3)nc21 [Example 9, 3-(6-(([2,3′-bipyridin]-5-ylmethyl)amino)-9-isopropyl-9H-purin-2-yl)benzamide]	0.504	1.6	1.12				
CCn1cnc2c(NCc3ccc(-n4nc(C)cc4C)nc3)nc(-c3cnc(N)nc3)nc21 [Example 62, 2-(2-aminopyrimidin-5-yl)-N-((6-(3,5-dimethyl-1H-pyrazol-1-yl)pyridin-3-yl)methyl)-9-ethyl-9H-purin-6-amine]		0.066	0.085				
CC(C)n1cnc2c(NCc3ccc(-c4cccnc4)nc3)nc(-c3ccc(F)nc3)nc21 [Example 28, N-([2,3′-bipyridin]-5-ylmethyl)-2-(6-fluoropyridin-3-yl)-9-isopropyl-9H-purin-6-amine]	0.147	1.75	1.31				
CC(C)n1cnc2c(NCc3ccc(-c4cccnc4)nc3)nc(-c3cccc(N)c3)nc21 [Example 26, N-([2,3′-bipyridin]-5-ylmethyl)-2-(3-aminophenyl)-9-isopropyl-9H-purin-6-amine]	0.17	0.615	0.34				
CC(C)n1cnc2c(NCc3ccc(-c4cccnc4)nc3)nc(-c3cncnc3)nc21 [Example 20, N-([2,3′-bipyridin]-5-ylmethyl)-9-isopropyl-2-(pyrimidin-5-yl)-9H-purin-6-amine]	0.051	0.314	0.308				
CC(C)n1cnc2c(NCc3ccc(-c4cccnc4)nc3)nc(-c3ccc4cn[nH]c4c3)nc21 [Example 13, N-([2,3′-bipyridin]-5-ylmethyl)-2-(1H-indazol-6-yl)-9-isopropyl-9H-purin-6-amine]	0.179	0.597	0.4				
CC(C)n1cnc2c(NCc3ccc(-c4cccnc4)nc3)nc(-c3ccc4[nH]ccc4c3)nc21 [Example 11, N-([2,3′-bipyridin]-5-ylmethyl)-2-(1H-indol-5-yl)-9-isopropyl-9H-purin-6-amine]	0.155	1.5	1.36				
CC(C)n1cnc2c(NCc3ccc(-c4cccnc4)nc3)nc(-c3cccnc3)nc21 [Example 6, N-([2,3′-bipyridin]-5-ylmethyl)-9-isopropyl-2-(pyridin-3-yl)-9H-purin-6-amine]	0.221	0.416	0.248				
c1cncc(-c2ccc(CNc3nc(-c4cccnc4)nc4c3ncn4C3CCCC3)cn2)c1 [Example 47, N-([2,3′-bipyridin]-5-ylmethyl)-9-cyclopentyl-2-(pyridin-3-yl)-9H-purin-6-amine]	0.293	2.6	2.14				
CC(C)n1cnc2c(NCc3ccc(-c4cccnc4)nc3)nc(-c3ccccc3NCCCO)nc21 [Example 32, 3-((2-(6-(([2,3′-bipyridin]-5-ylmethyl)amino)-9-isopropyl-9H-purin-2-yl)phenyl)amino)propan-1-ol]	3.01	11.3	6.09				
CC(C)n1cnc2c(NCc3ccc(-c4ccncc4)nc3)nc(-c3cccnc3)nc21 [Example 7, N-([2,4′-bipyridin]-5-ylmethyl)-9-isopropyl-2-(pyridin-3-yl)-9H-purin-6-amine]	0.153	0.801	0.5				
CC(C)n1cnc2c(NCc3ccc(-c4cccnc4)nc3)nc(-c3ccc(NCCCO)cc3)nc21 [Example 34, 3-((4-(6-(([2,3′-bipyridin]-5-ylmethyl)amino)-9-isopropyl-9H-purin-2-yl)phenyl)amino)propan-1-ol]	0.499	1.09	0.906				
Cc1ccc(-c2ccc(CNc3nc(-c4cccnc4)nc4c3ncn4C(C)C)nc2)cn1 [Example 3, 9-isopropyl-N-((6′-methyl-[3,3′-bipyridin]-6-yl)methyl)-2-(pyridin-3-yl)-9H-purin-6-amine]	1.11	23.1	13.6				
CC(C)n1cnc2c(NCc3ccc(-c4cccnc4)nc3)nc(-c3ccccc3N)nc21 [Example 25, N-([2,3′-bipyridin]-5-ylmethyl)-2-(2-aminophenyl)-9-isopropyl-9H-purin-6-amine]	0.619	2.58	2.62				
CC(C)n1cnc2c(NCc3ccc(-c4cccnc4)nc3)nc(-c3ccc(NCCO)nc3)nc21 [Example 35, 2-((5-(6-(([2,3′-bipyridin]-5-ylmethyl)amino)-9-isopropyl-9H-purin-2-yl)pyridin-2-yl)amino)ethan-1-ol]	0.053	0.261	0.173				
Cc1cc(-c2ccc(CNc3nc(-c4cccnc4)nc4c3ncn4C(C)C)nc2)ccn1 [Example 5, 9-isopropyl-N-((2′-methyl-[3,4′-bipyridin]-6-yl)methyl)-2-(pyridin-3-yl)-9H-purin-6-amine]	0.481					inhibited Pol II CTD (Ser2) phosphorylation in a dose-dependent manner	induced the degradation of cyclinK

Reference: patent publication US20250101023A1, “HETEROARYL DERIVATIVE AND USES THEREOF” (IUCF-HYU (INDUSTRY-UNIVERSITY COOPERATION FOUNDATION …, priority 2022, published 2025)
